System in the first series: not listed separately
Put plainly: The drug is tested on the gut metagenome community of MV02 with ENA study accession number: PRJEB31790 and ENA sample accession number: SAMEA5537483 for biotransformation. The drug concentrations were measured over 9 timepoints collected between 0 and 24 hours of incubation by liquid-chromatography-coupled mass spectrometry (LC–MS). The note with it: 2 µM. The format is ADME. Set-up: dose 2 uM, timepoint 0, 1, 2, 4, 6, 8, 12, 18, 24 hours.
In the case of `COc1ccc([C@@H]2Sc3ccccc3N(CCN(C)C)C(=O)[C@@H]2OC(C)=O)cc1` [DILTIAZEM], the “Bacterial Biotransformation” value is reported as “Compound NOT metabolized”.

System in another series: not listed separately
Put plainly: The drug is tested on the gut metagenome community of MV09 with ENA study accession number: PRJEB31790 and ENA sample accession number: SAMEA5537490 for biotransformation. The drug concentrations were measured over 9 timepoints collected between 0 and 24 hours of incubation by liquid-chromatography-coupled mass spectrometry (LC–MS). It is filed as ADME. Set-up: dose 2 uM, timepoint 0, 1, 2, 4, 6, 8, 12, 18, 24 hours. The note with it: 2 µM.
With `COc1ccc([C@@H]2Sc3ccccc3N(CCN(C)C)C(=O)[C@@H]2OC(C)=O)cc1` [DILTIAZEM], the “Bacterial Biotransformation” value is reported as “Compound NOT metabolized”.

System in another series: not listed separately
Put plainly: The drug is tested on the gut metagenome community of MV12 with ENA study accession number: PRJEB31790 and ENA sample accession number: SAMEA5537493 for biotransformation. The drug concentrations were measured over 9 timepoints collected between 0 and 24 hours of incubation by liquid-chromatography-coupled mass spectrometry (LC–MS). Particulars: 2 µM. The format is ADME. Set-up: dose 2 uM, timepoint 0, 1, 2, 4, 6, 8, 12, 18, 24 hours.
`COc1ccc([C@@H]2Sc3ccccc3N(CCN(C)C)C(=O)[C@@H]2OC(C)=O)cc1` [DILTIAZEM]: the “Bacterial Biotransformation” value is listed as “Compound NOT metabolized”.

System in another series: not listed separately
Put plainly: The drug is tested on the gut metagenome community of MV28 with ENA study accession number: PRJEB31790 and ENA sample accession number: SAMEA5537509 for biotransformation. The drug concentrations were measured over 9 timepoints collected between 0 and 24 hours of incubation by liquid-chromatography-coupled mass spectrometry (LC–MS). Particulars: 2 µM. The format is ADME. Set-up: dose 2 uM, timepoint 0, 1, 2, 4, 6, 8, 12, 18, 24 hours.
Take `COc1ccc([C@@H]2Sc3ccccc3N(CCN(C)C)C(=O)[C@@H]2OC(C)=O)cc1` [DILTIAZEM]: the “Bacterial Biotransformation” value was “Compound NOT metabolized”.

System in another series: not listed separately
Put plainly: The drug is tested on the gut metagenome community of MV04 with ENA study accession number: PRJEB31790 and ENA sample accession number: SAMEA5537485 for biotransformation. The drug concentrations were measured over 9 timepoints collected between 0 and 24 hours of incubation by liquid-chromatography-coupled mass spectrometry (LC–MS). It is filed as ADME. Set-up: dose 2 uM, timepoint 0, 1, 2, 4, 6, 8, 12, 18, 24 hours. Particulars: 2 µM.
For `COc1ccc([C@@H]2Sc3ccccc3N(CCN(C)C)C(=O)[C@@H]2OC(C)=O)cc1` [DILTIAZEM], the “Bacterial Biotransformation” value is given as “Compound NOT metabolized”.

System in another series: not listed separately
Put plainly: The drug is tested on the gut metagenome community of MV22 with ENA study accession number: PRJEB31790 and ENA sample accession number: SAMEA5537503 for biotransformation. The drug concentrations were measured over 9 timepoints collected between 0 and 24 hours of incubation by liquid-chromatography-coupled mass spectrometry (LC–MS). The format is ADME. Set-up: dose 2 uM, timepoint 0, 1, 2, 4, 6, 8, 12, 18, 24 hours. The note with it: 2 µM.
Turning to `COc1ccc([C@@H]2Sc3ccccc3N(CCN(C)C)C(=O)[C@@H]2OC(C)=O)cc1` [DILTIAZEM], the “Bacterial Biotransformation” value is given as “Compound NOT metabolized”.

System in a further series: not listed separately
Put plainly: The drug is tested on the gut metagenome community of MV08 with ENA study accession number: PRJEB31790 and ENA sample accession number: SAMEA5537489 for biotransformation. The drug concentrations were measured over 9 timepoints collected between 0 and 24 hours of incubation by liquid-chromatography-coupled mass spectrometry (LC–MS). It is filed as ADME. Set-up: dose 2 uM, timepoint 0, 1, 2, 4, 6, 8, 12, 18, 24 hours. The note with it: 2 µM.
Turning to `COc1ccc([C@@H]2Sc3ccccc3N(CCN(C)C)C(=O)[C@@H]2OC(C)=O)cc1` [DILTIAZEM], the “Bacterial Biotransformation” value is reported as “Compound NOT metabolized”.

Another series deals with T1, Esterase (Phocaeicola dorei, UniProt B6W2J6).
T1 sequence (B6W2J6 whole entry): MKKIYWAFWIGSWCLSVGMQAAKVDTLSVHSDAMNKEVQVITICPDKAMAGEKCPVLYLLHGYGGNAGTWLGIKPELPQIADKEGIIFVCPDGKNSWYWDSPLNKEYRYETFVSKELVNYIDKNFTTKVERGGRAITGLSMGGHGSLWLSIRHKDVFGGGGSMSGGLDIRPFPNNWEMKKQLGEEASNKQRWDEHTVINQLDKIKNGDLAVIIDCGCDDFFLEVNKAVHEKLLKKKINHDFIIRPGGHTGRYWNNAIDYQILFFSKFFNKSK
Put plainly: (§1) The drug is tested on Bacteroides dorei strain: DSM17855 for biotransformation. The drug concentrations were measured before and after a 12-h incubation by liquid-chromatography-coupled mass spectrometry (LC–MS). It is filed as ADME. The note with it: 2 µM. Set-up: dose 2 uM.
As to `C#C[C@]1(O)CC[C@H]2[C@@H]3CCC4=CC(=O)CC[C@@H]4[C@H]3CC[C@@]21CC` [LEVONORGESTREL], the “Bacterial Biotransformation” value is “Compound NOT metabolized”.

As to `COc1ccc([C@@H]2Sc3ccccc3N(CCN(C)C)C(=O)[C@@H]2OC(C)=O)cc1` [DILTIAZEM], the “Bacterial Biotransformation” value is recorded as “Compound NOT metabolized”.

For the compound `CC(=O)OCC(=O)[C@@]1(OC(C)=O)[C@@H](C)C[C@H]2[C@@H]3C[C@H](F)C4=CC(=O)C=C[C@]4(C)[C@@]3(F)[C@@H](O)C[C@@]21C` [DIFLORASONE DIACETATE], the “Bacterial Biotransformation” value is on record as “Compound NOT metabolized”.

Another series concerns the target T2, Nitroreductase domain-containing protein (Phocaeicola dorei, UniProt B6W3P3).
T2 sequence (B6W3P3 whole entry): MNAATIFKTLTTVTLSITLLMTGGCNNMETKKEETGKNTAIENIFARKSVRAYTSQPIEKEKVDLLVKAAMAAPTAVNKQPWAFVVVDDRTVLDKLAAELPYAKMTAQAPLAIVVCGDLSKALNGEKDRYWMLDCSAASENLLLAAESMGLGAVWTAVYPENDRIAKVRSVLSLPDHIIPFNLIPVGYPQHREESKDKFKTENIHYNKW
The description is as §1. It is filed as ADME. Set-up: dose 2 uM. The note with it: 2 µM.
On to `C#C[C@]1(O)CC[C@H]2[C@@H]3CCC4=CC(=O)CC[C@@H]4[C@H]3CC[C@@]21CC` [LEVONORGESTREL], for which the “Bacterial Biotransformation” value is “Compound NOT metabolized”.

Take `COc1ccc([C@@H]2Sc3ccccc3N(CCN(C)C)C(=O)[C@@H]2OC(C)=O)cc1` [DILTIAZEM]: the “Bacterial Biotransformation” value is “Compound NOT metabolized”.

As for `CC(=O)OCC(=O)[C@@]1(OC(C)=O)[C@@H](C)C[C@H]2[C@@H]3C[C@H](F)C4=CC(=O)C=C[C@]4(C)[C@@]3(F)[C@@H](O)C[C@@]21C` [DIFLORASONE DIACETATE], the “Bacterial Biotransformation” value is recorded as “Compound NOT metabolized”.

The target in the next series is T3, SGNH hydrolase-type esterase domain-containing protein (Phocaeicola dorei, UniProt B6W1J1).
T3 sequence (B6W1J1 whole entry): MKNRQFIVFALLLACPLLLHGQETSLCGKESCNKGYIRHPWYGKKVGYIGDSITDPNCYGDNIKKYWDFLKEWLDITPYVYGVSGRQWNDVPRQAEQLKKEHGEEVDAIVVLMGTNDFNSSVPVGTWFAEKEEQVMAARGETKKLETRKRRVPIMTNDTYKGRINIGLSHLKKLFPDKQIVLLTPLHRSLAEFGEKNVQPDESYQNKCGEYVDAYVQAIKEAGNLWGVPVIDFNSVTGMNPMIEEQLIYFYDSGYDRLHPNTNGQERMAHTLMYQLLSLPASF
The description is as §1. The format is ADME. Set-up: dose 2 uM. The note with it: 2 µM.
Take `C#C[C@]1(O)CC[C@H]2[C@@H]3CCC4=CC(=O)CC[C@@H]4[C@H]3CC[C@@]21CC` [LEVONORGESTREL]: the “Bacterial Biotransformation” value is on record as “Compound NOT metabolized”.

`COc1ccc([C@@H]2Sc3ccccc3N(CCN(C)C)C(=O)[C@@H]2OC(C)=O)cc1` [DILTIAZEM]: the “Bacterial Biotransformation” value was “Compound NOT metabolized”.

Another series deals with T4, Nitroreductase domain-containing protein (Phocaeicola dorei, UniProt B6VU18).
T4 sequence (B6VU18 whole entry): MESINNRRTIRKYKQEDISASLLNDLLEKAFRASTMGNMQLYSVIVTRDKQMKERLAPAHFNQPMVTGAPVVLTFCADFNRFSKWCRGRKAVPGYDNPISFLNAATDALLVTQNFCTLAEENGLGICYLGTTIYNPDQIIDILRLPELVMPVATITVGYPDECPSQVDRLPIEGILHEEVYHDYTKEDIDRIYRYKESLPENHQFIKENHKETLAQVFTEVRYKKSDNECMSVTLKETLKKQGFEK
The description is as §1. It is filed as ADME. Set-up: dose 2 uM. Particulars: 2 µM.
With `C#C[C@]1(O)CC[C@H]2[C@@H]3CCC4=CC(=O)CC[C@@H]4[C@H]3CC[C@@]21CC` [LEVONORGESTREL], the “Bacterial Biotransformation” value was “Compound NOT metabolized”.

Turning to `COc1ccc([C@@H]2Sc3ccccc3N(CCN(C)C)C(=O)[C@@H]2OC(C)=O)cc1` [DILTIAZEM], the “Bacterial Biotransformation” value is recorded as “Compound NOT metabolized”.

As to `CC(=O)OCC(=O)[C@@]1(OC(C)=O)[C@@H](C)C[C@H]2[C@@H]3C[C@H](F)C4=CC(=O)C=C[C@]4(C)[C@@]3(F)[C@@H](O)C[C@@]21C` [DIFLORASONE DIACETATE], the “Bacterial Biotransformation” value is on record as “Compound NOT metabolized”.

For a further series, the target named is T5, Acylhydrolase (Bacteroides thetaiotaomicron, UniProt Q8AA96).
T5 sequence (Q8AA96 whole entry): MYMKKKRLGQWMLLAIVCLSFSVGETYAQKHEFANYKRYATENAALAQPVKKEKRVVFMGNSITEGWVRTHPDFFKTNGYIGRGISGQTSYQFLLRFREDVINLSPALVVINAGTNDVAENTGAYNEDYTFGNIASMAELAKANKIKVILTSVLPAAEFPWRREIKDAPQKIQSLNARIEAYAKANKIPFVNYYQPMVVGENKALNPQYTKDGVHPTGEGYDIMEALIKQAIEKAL
Put plainly: The drug is tested on Bacteroides thetaiotaomicron strain: VPI-5482 for biotransformation. The drug concentrations were measured before and after a 12-h incubation by liquid-chromatography-coupled mass spectrometry (LC–MS). The format is ADME. Set-up: dose 2 uM. The note with it: 2 µM.
For the compound `C#C[C@]1(O)CC[C@H]2[C@@H]3CCC4=CC(=O)CC[C@@H]4[C@H]3CC[C@@]21CC` [LEVONORGESTREL], the “Bacterial Biotransformation” value is on record as “Compound NOT metabolized”.

`COc1ccc([C@@H]2Sc3ccccc3N(CCN(C)C)C(=O)[C@@H]2OC(C)=O)cc1` [DILTIAZEM]: the “Bacterial Biotransformation” value is recorded as “Compound NOT metabolized”.

For `CC(=O)OCC(=O)[C@@]1(OC(C)=O)[C@@H](C)C[C@H]2[C@@H]3C[C@H](F)C4=CC(=O)C=C[C@]4(C)[C@@]3(F)[C@@H](O)C[C@@]21C` [DIFLORASONE DIACETATE], the “Bacterial Biotransformation” value was “Compound metabolized”.

System in the next series: not listed separately
Put plainly: The drug is tested on the gut metagenome community of MV27 with ENA study accession number: PRJEB31790 and ENA sample accession number: SAMEA5537508 for biotransformation. The drug concentrations were measured over 9 timepoints collected between 0 and 24 hours of incubation by liquid-chromatography-coupled mass spectrometry (LC–MS). Set-up: dose 2 uM, timepoint 0, 1, 2, 4, 6, 8, 12, 18, 24 hours. Particulars: 2 µM. It is filed as ADME.
Turning to `COc1ccc([C@@H]2Sc3ccccc3N(CCN(C)C)C(=O)[C@@H]2OC(C)=O)cc1` [DILTIAZEM], the “Bacterial Biotransformation” value was “Compound NOT metabolized”.

System in another series: not listed separately
Put plainly: The drug is tested on the gut metagenome community of MV24 with ENA study accession number: PRJEB31790 and ENA sample accession number: SAMEA5537505 for biotransformation. The drug concentrations were measured over 9 timepoints collected between 0 and 24 hours of incubation by liquid-chromatography-coupled mass spectrometry (LC–MS). The format is ADME. Set-up: dose 2 uM, timepoint 0, 1, 2, 4, 6, 8, 12, 18, 24 hours. Particulars: 2 µM.
As for `COc1ccc([C@@H]2Sc3ccccc3N(CCN(C)C)C(=O)[C@@H]2OC(C)=O)cc1` [DILTIAZEM], the “Bacterial Biotransformation” value is recorded as “Compound NOT metabolized”.

System in the next series: not listed separately
Put plainly: The drug is tested on the gut metagenome community of MV01 with ENA study accession number: PRJEB31790 and ENA sample accession number: SAMEA5537482 for biotransformation. The drug concentrations were measured over 9 timepoints collected between 0 and 24 hours of incubation by liquid-chromatography-coupled mass spectrometry (LC–MS). The format is ADME. Set-up: dose 2 uM, timepoint 0, 1, 2, 4, 6, 8, 12, 18, 24 hours. The note with it: 2 µM.
For the compound `COc1ccc([C@@H]2Sc3ccccc3N(CCN(C)C)C(=O)[C@@H]2OC(C)=O)cc1` [DILTIAZEM], the “Bacterial Biotransformation” value is reported as “Compound NOT metabolized”.

Source of the values: ChEMBL document CHEMBL5303573, “Mapping human microbiome drug metabolism by gut bacteria and their genes” (Nature, 2019).
